Measured values reported in paper PMC11062922 (Nature Chemical Biology, 2023).

Columns and labels:
AP1G1 = assay: Kinobeads competition binding: AP1G1; design: species or system human; details: target AP1G1
BUB1 = molecular target: T1, BUB1 (Homo sapiens, UniProt O43683); assay: Kinobeads competition binding: BUB1; details: target BUB1
T1 construct: endogenous in cells

MELK = assay: Kinobeads competition binding: MELK; design: species or system human; details: target MELK;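 note: share of total target engagement due to this protein at one drug concentration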
MARK3 = assay: Kinobeads competition binding: MARK3; design: species or system human; details: target MARK3
PIK3C2A = assay: Kinobeads competition binding: PIK3C2A; design: species or system human; details: target PIK3C2A;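 note: share of all-target engagement taken by this protein at its own Kdapp concentration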
CDK9 = assay: Kinobeads competition binding: CDK9; design: species or system human; details: target CDK9
PAK4 [1] = molecular target: T2, PAK4 (Homo sapiens, UniProt O96013); assay: Kinobeads competition binding: PAK4; details: target PAK4
T2 construct: a mixture of lysates from five cancer cell lines; endogenous in cells
Description: Supplement 41589_2023_1459_MOESM4_ESM.xlsx, sheet "CATDS matrix" | column: PAK4

PKN1 = molecular target: T3, PKN1 (Homo sapiens, UniProt Q16512); assay: Kinobeads full dose-response competition binding: PKN1; details: Gene Name PKN1; for Relative Intensity 0.3nM: 0.3nM compound; for Relative Intensity 0.3nM / Relative Intensity 1nM / Relative Intensity 3nM / Relative Intensity 10nM / Relative Intensity 30nM / Relative Intensity 100nM / Relative Intensity 300nM / Relative Intensity 1000nM: DMSO = 1; for Relative Intensity 1nM: 1nM compound; for Relative Intensity 3nM: 3nM compound; for Relative Intensity 10nM: 10nM compound; for Relative Intensity 30nM: 30nM compound; for Relative Intensity 100nM: 100nM compound; for Relative Intensity 300nM: 300nM compound; for Relative Intensity 1000nM: 1000nM compound
T3 construct: a mixture of lysates from five cancer cell lines; endogenous in cells

GSK3A = molecular target: T4, GSK3A (Homo sapiens, UniProt P49840); assay: Kinobeads full dose-response competition binding: GSK3A; details: Gene Name GSK3A; for Relative Intensity 0.3nM: 0.3nM compound; for Relative Intensity 0.3nM / Relative Intensity 1nM / Relative Intensity 3nM / Relative Intensity 10nM / Relative Intensity 30nM / Relative Intensity 100nM / Relative Intensity 300nM / Relative Intensity 1000nM: DMSO = 1; for Relative Intensity 1nM: 1nM compound; for Relative Intensity 3nM: 3nM compound; for Relative Intensity 10nM: 10nM compound; for Relative Intensity 30nM: 30nM compound; for Relative Intensity 100nM: 100nM compound; for Relative Intensity 300nM: 300nM compound; for Relative Intensity 1000nM: 1000nM compound; for Kd: EC50 with Correction, read-out: apparent Kd; for Kd / EC50: doses in nM; for EC50: eight-dose curve fit
T4 construct: endogenous in cells

PAK4 [2] = molecular target: T2, PAK4; assay: Kinobeads full dose-response competition binding: PAK4; details: Gene Name PAK4; for Relative Intensity 0.3nM: 0.3nM compound; for Relative Intensity 0.3nM / Relative Intensity 1nM / Relative Intensity 3nM / Relative Intensity 10nM / Relative Intensity 30nM / Relative Intensity 100nM / Relative Intensity 300nM / Relative Intensity 1000nM: DMSO = 1; for Relative Intensity 1nM: 1nM compound; for Relative Intensity 3nM: 3nM compound; for Relative Intensity 10nM: 10nM compound; for Relative Intensity 30nM: 30nM compound; for Relative Intensity 100nM: 100nM compound; for Relative Intensity 300nM: 300nM compound; for Relative Intensity 1000nM: 1000nM compound
LATS1 = molecular target: T5, LATS1 (Homo sapiens, UniProt O95835); assay: Kinobeads full dose-response competition binding: LATS1; details: Gene Name LATS1; for Relative Intensity 0.3nM: 0.3nM compound; for Relative Intensity 0.3nM / Relative Intensity 1nM / Relative Intensity 3nM / Relative Intensity 10nM / Relative Intensity 30nM / Relative Intensity 100nM / Relative Intensity 300nM / Relative Intensity 1000nM: DMSO = 1; for Relative Intensity 1nM: 1nM compound; for Relative Intensity 3nM: 3nM compound; for Relative Intensity 10nM: 10nM compound; for Relative Intensity 30nM: 30nM compound; for Relative Intensity 100nM: 100nM compound; for Relative Intensity 300nM: 300nM compound; for Relative Intensity 1000nM: 1000nM compound; for Kd: EC50 with Correction, read-out: apparent Kd; for Kd / EC50: doses in nM; for EC50: eight-dose curve fit
T5 construct: endogenous in cells
T5 sequence (O95835 1-1130): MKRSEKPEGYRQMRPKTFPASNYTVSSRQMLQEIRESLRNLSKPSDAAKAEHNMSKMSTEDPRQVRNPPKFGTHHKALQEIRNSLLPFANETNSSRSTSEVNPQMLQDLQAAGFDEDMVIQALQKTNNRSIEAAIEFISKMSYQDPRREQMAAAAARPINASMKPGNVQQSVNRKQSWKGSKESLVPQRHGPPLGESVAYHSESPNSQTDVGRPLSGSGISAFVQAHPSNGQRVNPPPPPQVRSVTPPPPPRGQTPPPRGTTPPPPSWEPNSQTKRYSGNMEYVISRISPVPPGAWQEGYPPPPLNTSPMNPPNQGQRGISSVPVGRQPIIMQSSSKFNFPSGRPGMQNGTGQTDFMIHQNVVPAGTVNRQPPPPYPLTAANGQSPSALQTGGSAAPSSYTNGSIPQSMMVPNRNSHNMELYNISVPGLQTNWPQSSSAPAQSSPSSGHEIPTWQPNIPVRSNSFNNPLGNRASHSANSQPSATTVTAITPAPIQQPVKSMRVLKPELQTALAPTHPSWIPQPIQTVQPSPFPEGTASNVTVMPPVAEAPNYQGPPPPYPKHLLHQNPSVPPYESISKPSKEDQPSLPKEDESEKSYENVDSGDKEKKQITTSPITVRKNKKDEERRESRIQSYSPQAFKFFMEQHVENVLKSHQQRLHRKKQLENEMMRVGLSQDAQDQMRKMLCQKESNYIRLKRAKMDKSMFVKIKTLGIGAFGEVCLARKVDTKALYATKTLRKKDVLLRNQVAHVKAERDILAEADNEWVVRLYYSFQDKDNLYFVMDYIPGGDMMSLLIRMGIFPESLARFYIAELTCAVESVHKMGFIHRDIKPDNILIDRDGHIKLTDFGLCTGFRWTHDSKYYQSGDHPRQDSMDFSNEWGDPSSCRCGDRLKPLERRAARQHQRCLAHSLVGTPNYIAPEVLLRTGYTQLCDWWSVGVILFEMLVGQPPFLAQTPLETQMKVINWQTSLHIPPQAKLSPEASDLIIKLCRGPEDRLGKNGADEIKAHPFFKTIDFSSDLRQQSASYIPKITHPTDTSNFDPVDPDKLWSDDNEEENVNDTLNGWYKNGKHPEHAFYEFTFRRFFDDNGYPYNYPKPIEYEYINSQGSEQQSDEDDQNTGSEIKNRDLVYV

[3] = EC50 with Correction, doses in nM, read-out: apparent Kd
[4] = eight-dose curve fit, doses in nM

T1 sequence (O43683 whole entry): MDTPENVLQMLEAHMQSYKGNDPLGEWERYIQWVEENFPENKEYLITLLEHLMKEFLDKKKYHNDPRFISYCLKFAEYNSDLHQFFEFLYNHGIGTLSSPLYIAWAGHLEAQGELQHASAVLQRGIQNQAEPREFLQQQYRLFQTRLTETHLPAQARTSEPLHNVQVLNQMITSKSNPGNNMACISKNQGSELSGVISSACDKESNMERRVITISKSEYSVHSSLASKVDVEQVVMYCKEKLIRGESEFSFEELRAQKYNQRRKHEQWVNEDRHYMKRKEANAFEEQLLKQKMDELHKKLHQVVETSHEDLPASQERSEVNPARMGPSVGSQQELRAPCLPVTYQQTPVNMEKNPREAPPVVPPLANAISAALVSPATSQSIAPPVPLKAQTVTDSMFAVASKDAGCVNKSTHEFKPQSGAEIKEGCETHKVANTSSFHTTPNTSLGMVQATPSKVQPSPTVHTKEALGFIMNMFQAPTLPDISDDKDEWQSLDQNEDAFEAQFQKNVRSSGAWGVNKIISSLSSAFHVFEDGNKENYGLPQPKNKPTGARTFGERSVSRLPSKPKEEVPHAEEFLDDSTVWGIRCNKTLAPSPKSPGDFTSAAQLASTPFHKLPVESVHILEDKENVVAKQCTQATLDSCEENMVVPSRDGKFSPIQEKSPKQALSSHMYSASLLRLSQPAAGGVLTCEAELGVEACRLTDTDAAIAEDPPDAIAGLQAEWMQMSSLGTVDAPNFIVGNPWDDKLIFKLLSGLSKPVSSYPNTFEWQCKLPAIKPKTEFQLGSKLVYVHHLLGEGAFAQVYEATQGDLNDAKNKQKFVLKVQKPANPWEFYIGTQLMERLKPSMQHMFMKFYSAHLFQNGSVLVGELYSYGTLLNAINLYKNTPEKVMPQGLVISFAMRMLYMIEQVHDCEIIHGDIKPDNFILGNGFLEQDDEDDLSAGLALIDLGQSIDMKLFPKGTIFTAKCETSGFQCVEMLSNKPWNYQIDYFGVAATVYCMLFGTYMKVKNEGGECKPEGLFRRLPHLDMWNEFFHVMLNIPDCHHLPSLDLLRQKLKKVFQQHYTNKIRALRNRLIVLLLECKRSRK
T4 sequence (P49840 whole entry): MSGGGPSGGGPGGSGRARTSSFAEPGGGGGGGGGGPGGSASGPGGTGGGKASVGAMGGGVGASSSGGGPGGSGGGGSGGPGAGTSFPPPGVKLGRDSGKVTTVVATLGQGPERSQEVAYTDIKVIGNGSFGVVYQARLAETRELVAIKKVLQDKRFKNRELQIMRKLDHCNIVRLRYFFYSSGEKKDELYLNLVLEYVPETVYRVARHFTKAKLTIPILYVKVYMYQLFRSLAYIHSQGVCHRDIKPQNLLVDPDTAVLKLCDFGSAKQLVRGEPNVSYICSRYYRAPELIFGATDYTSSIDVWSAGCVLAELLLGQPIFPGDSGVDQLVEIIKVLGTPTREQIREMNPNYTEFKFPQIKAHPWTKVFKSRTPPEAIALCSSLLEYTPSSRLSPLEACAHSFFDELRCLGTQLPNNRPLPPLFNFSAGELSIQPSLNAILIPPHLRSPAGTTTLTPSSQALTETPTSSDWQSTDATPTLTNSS
T2 sequence (O96013 whole entry): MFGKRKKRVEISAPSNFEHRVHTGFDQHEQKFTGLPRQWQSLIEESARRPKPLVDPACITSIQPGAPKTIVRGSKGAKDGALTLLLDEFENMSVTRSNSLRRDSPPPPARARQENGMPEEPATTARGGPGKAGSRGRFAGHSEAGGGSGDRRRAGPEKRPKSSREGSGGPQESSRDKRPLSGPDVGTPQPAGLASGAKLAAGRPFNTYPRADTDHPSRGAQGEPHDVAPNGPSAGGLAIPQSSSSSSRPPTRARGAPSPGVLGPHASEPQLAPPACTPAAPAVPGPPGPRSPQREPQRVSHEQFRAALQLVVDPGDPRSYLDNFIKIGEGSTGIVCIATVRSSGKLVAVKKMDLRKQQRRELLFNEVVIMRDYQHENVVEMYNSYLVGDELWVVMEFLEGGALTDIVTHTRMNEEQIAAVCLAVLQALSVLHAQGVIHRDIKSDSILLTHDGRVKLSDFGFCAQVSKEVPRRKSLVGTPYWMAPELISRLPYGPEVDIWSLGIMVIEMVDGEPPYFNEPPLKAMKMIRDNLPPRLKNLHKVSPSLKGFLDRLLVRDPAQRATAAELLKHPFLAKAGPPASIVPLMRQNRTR
T3 sequence (Q16512 whole entry): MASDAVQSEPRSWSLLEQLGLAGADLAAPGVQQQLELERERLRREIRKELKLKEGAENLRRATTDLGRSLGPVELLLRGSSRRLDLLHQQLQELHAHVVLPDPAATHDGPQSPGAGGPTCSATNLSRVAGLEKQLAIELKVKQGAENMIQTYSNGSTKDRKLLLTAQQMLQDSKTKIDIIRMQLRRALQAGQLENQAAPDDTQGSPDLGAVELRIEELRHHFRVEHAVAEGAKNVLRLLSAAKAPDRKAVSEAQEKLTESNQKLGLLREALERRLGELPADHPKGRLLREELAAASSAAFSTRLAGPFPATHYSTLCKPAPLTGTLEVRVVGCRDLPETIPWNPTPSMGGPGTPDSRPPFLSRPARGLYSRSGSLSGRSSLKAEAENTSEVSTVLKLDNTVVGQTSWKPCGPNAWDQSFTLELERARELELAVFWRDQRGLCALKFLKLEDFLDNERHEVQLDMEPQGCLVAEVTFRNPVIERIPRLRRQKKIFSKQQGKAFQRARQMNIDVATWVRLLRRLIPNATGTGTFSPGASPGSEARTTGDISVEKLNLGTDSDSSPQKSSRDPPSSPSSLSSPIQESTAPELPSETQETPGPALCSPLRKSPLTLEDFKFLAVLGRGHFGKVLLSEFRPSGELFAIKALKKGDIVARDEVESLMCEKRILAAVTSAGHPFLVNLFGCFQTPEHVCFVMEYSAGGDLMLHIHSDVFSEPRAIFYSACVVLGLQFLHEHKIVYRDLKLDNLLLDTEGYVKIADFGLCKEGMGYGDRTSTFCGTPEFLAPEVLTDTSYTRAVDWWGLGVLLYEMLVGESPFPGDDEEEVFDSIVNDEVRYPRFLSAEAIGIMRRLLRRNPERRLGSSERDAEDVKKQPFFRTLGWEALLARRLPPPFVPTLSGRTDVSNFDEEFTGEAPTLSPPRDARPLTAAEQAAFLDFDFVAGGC

For Nc1ncnc2[nH]c(-c3ccccc3)nc12 [AH5015_KCGS], the CATDS (AP1G1) was 0, the CATDS (BUB1) was 0 and the CATDS (MELK) was 0. The CATDS (MARK3) was 0, the CATDS (PIK3C2A) was 0 and the CATDS (CDK9) was 0. The CATDS (PAK4 [1]) was 0.
CCN1CCN(Cc2ccc(Nc3ncc(F)c(-c4cc(F)c5nc(C)n(C(C)C)c5c4)n3)nc2)CC1 [Abemaciclib] was tested, and the CATDS (AP1G1) was 0, the CATDS (BUB1) was 0 and the CATDS (MELK) was 0. For the same molecule, the CATDS (MARK3) was 0, the CATDS (PIK3C2A) was 0 and the CATDS (CDK9) was 0.02947. The CATDS (PAK4 [1]) was 0.
For CN(C)C/C=C/C(=O)Nc1cc2c(Nc3ccc(F)c(Cl)c3)ncnc2cc1O[C@H]1CCOC1 [Afatinib], the CATDS (AP1G1) was 0, the CATDS (PIK3C2A) was 0 and the CATDS (PAK4 [1]) was 0.
Work on CCc1cc2c(cc1N1CCC(N3CCOCC3)CC1)C(C)(C)c1[nH]c3cc(C#N)ccc3c1C2=O [Alectinib] yielded a CATDS (AP1G1) of 0, a CATDS (BUB1) of 0 and a CATDS (MELK) of 0. It also gave a CATDS (MARK3) of 0, a CATDS (PIK3C2A) of 0 and a CATDS (CDK9) of 0. It also gave a CATDS (PAK4 [1]) of 0.
In the case of N#CC1(c2ccc(NC(=O)c3cccnc3NCc3ccncc3)cc2)CCCC1 [Apatinib], the CATDS (AP1G1) is reported as 0, the CATDS (BUB1) is reported as 0 and the CATDS (MELK) is reported as 0. It also gave a CATDS (MARK3) of 0, a CATDS (PIK3C2A) of 0 and a CATDS (CDK9) of 0. It also gave a CATDS (PAK4 [1]) of 0.
In the case of CCn1c(-c2nonc2N)nc2c(C#CC(C)(C)O)nc(OCCN)cc21 [GSK902056A], the “Relative Intensity 0.3nM” value (PKN1) is reported as 0.9859, the “Relative Intensity 1nM” value (PKN1) is reported as 1.011 and the “Relative Intensity 3nM” value (PKN1) is reported as 0.9965. The “Relative Intensity 10nM” value (PKN1) was 0.9627, the “Relative Intensity 30nM” value (PKN1) was 0.7754 and the “Relative Intensity 100nM” value (PKN1) was 0.5397. The “Relative Intensity 300nM” value (PKN1) was 0.2684, the “Relative Intensity 1000nM” value (PKN1) was 0.1427 and the Kd (PKN1; [3]) was 92.3 nM. The EC50 (PKN1; [4]) was 92.3 nM, the “Relative Intensity 0.3nM” value (GSK3A) was 0.9894 and the “Relative Intensity 1nM” value (GSK3A) was 1.046. The “Relative Intensity 3nM” value (GSK3A) was 1.057, the “Relative Intensity 10nM” value (GSK3A) was 0.9554 and the “Relative Intensity 30nM” value (GSK3A) was 0.7994. For the same molecule, the “Relative Intensity 100nM” value (GSK3A) was 0.6557, the “Relative Intensity 300nM” value (GSK3A) was 0.3972 and the “Relative Intensity 1000nM” value (GSK3A) was 0.1852. For the same molecule, the Kd (GSK3A) was 164 nM, the EC50 (GSK3A) was 173 nM and the “Relative Intensity 0.3nM” value (PAK4 [2]) was 1.05. For the same molecule, the “Relative Intensity 1nM” value (PAK4 [2]) was 1.027, the “Relative Intensity 3nM” value (PAK4 [2]) was 1.044 and the “Relative Intensity 10nM” value (PAK4 [2]) was 0.9586. The “Relative Intensity 30nM” value (PAK4 [2]) was 0.8645, the “Relative Intensity 100nM” value (PAK4 [2]) was 0.8782 and the “Relative Intensity 300nM” value (PAK4 [2]) was 0.7175. For the same molecule, the “Relative Intensity 1000nM” value (PAK4 [2]) was 0.4475, the “Relative Intensity 0.3nM” value (LATS1) was 0.9708 and the “Relative Intensity 1nM” value (LATS1) was 1.022. For the same molecule, the “Relative Intensity 3nM” value (LATS1) was 1.017, the “Relative Intensity 10nM” value (LATS1) was 1.027 and the “Relative Intensity 30nM” value (LATS1) was 0.7859. For the same molecule, the “Relative Intensity 100nM” value (LATS1) was 0.4584, the “Relative Intensity 300nM” value (LATS1) was 0.1984 and the “Relative Intensity 1000nM” value (LATS1) was 0.02738. For the same molecule, the Kd (LATS1) was 87.4 nM and the EC50 (LATS1) was 87.4 nM.
CCn1c(-c2nonc2N)nc2c(C#CC(C)(C)O)nc(OCCNC)cc21 [GSK949675A] was tested, and the “Relative Intensity 0.3nM” value (PKN1) was 1.026, the “Relative Intensity 1nM” value (PKN1) was 1.04 and the “Relative Intensity 3nM” value (PKN1) was 1.011. For the same molecule, the “Relative Intensity 10nM” value (PKN1) was 0.946, the “Relative Intensity 30nM” value (PKN1) was 0.9307 and the “Relative Intensity 100nM” value (PKN1) was 0.9366. The “Relative Intensity 300nM” value (PKN1) was 0.7358, the “Relative Intensity 1000nM” value (PKN1) was 0.4262 and the “Relative Intensity 0.3nM” value (GSK3A) was 1.008. For the same molecule, the “Relative Intensity 1nM” value (GSK3A) was 1.091, the “Relative Intensity 3nM” value (GSK3A) was 1.095 and the “Relative Intensity 10nM” value (GSK3A) was 0.9753. The “Relative Intensity 30nM” value (GSK3A) was 1.009, the “Relative Intensity 100nM” value (GSK3A) was 0.7508 and the “Relative Intensity 300nM” value (GSK3A) was 0.4472. For the same molecule, the “Relative Intensity 1000nM” value (GSK3A) was 0.237, the Kd (GSK3A) was 104 nM and the EC50 (GSK3A) was 167 nM. For the same molecule, the “Relative Intensity 0.3nM” value (PAK4 [2]) was 1.024, the “Relative Intensity 1nM” value (PAK4 [2]) was 1.092 and the “Relative Intensity 3nM” value (PAK4 [2]) was 1.039. For the same molecule, the “Relative Intensity 10nM” value (PAK4 [2]) was 0.9797, the “Relative Intensity 30nM” value (PAK4 [2]) was 0.9918 and the “Relative Intensity 100nM” value (PAK4 [2]) was 0.907. The “Relative Intensity 300nM” value (PAK4 [2]) was 0.6926, the “Relative Intensity 1000nM” value (PAK4 [2]) was 0.4818 and the Kd (PAK4 [2]; [3]) was 218 nM. For the same molecule, the EC50 (PAK4 [2]; [4]) was 316 nM, the “Relative Intensity 0.3nM” value (LATS1) was 1.0287 and the “Relative Intensity 1nM” value (LATS1) was 1.07. For the same molecule, the “Relative Intensity 3nM” value (LATS1) was 1.096, the “Relative Intensity 10nM” value (LATS1) was 1.105 and the “Relative Intensity 30nM” value (LATS1) was 1.087. For the same molecule, the “Relative Intensity 100nM” value (LATS1) was 0.897, the “Relative Intensity 300nM” value (LATS1) was 0.6219 and the “Relative Intensity 1000nM” value (LATS1) was 0.3635. The Kd (LATS1) was 238 nM and the EC50 (LATS1) was 238 nM.
